{
  "source": "paper PMC5615050",
  "about": "(Scientific Reports, 2017)",
  "data": [
    {"target": "Bac-NA^H274Y H1N1 (Influenza A virus, UniProt P03470, H259Y)", "assay": "biochemical", "units": {"IC50": "µM"}, "values": [
      {"smiles": "CC1OC(OC2CC(O)C3(CO)C4C(O)CC5(C)C(C6COC(O)C6)CCC5(O)C4CCC3(O)C2)C(O)C(O)C1O", "note": "(stereo not drawn) [BPR1P0003S0]", "IC50": "> 40"},
      {"smiles": "CC12CCC(O)CC1CCC1C2CC(O)C2(C)C(C3=CC(=O)OC3)CCC12O", "note": "(stereo not drawn) [BPR1P0007S0]", "IC50": "> 40"},
      {"smiles": "CC12CCC(O)CC1CCC1C2CCC2(C)C(C3=CC(=O)OC3)CCC12O", "note": "(stereo not drawn) [BPR1P0008S0]", "IC50": "> 40"}
    ]}
  ]
}
